Data from patent US4238491A (priority 1977, dated 1980).

Legend:
[1] = rat, in vivo, po
[2] = test system: blood pressure of anesthesized dogs; test: Effect on blood pressure of anesthesized dogs; format: in vivo, dog (mongrel); conditions: for average rate of blood pressure decrease: within 6 hours
Experimental: Changes in blood pressure were measured for 6 hours after the administration with a multi-purpose polygraph RM-85 made by NIHON KODEN.
The observed effect was a blood pressure decrease immediately after administration which came up nearly to plateau 2 hours after for 1 mg/kg, and 3 hours after for 3 mg/kg and 9 mg/kg, and in all cases remained on the plateau for 6 hours after that. The DB20 value obtained from the dose-response curve of FIG. 6 was 2 mg/kg.

central nervous system = conditions: in vivo; cited from earlier work
blood pressure of SHR = test: Antihypertensive effect by single oral administration, SHR, modified tail-cuff method; format: in vivo, rat (spontaneously hypertensive rats
Excerpt: The effect was examined through both direct and modified tail-cuff methods using male SHRs aged 25 to 30 weeks and weighing about 300 g.

[3] = Change of MR content in blood (serum level); format: in vivo, dogs, rabbits and rats
Experimental: In case of oral administration, the animals were not permitted to eat for 24 hours, except for the experiment of biotransformation.

rats = test: in vivo; format: in vivo, rat (SD (SPF))
Experimental: (§1) All the rats were observed daily and general symptoms noted. Weight was measured daily, average food-intake once every three days, and average water-intake once every two days.

in vivo = format: in vivo, rat (SD (SPF)); conditions: rat, in vivo; oral sub-acute, rats; read-out: ineffective dose
Experimental: as §1

[4] = 20 mg/kg oral
Experimental: Blood was drawn from branchial vein of dogs, vein of ear of rabbits and carotic artery of rats after slaughter. Urine was collected with urine bladder catheter for rabbits and metabolic cages for rats. Gathering bile was performed with biliary duct cannulation without anesthesia.

[5] = Effect on body temperature; format: in vivo, mouse (dd-strain); conditions: 25 mg/kg oral

Compound: COC(=O)[C@H]1[C@H]2C[C@@H]3c4[nH]c5cc(OC)ccc5c4CCN3C[C@H]2C[C@@H](O)[C@@H]1OC [MR, methylreserpate]
- metabolism [1]: hardly metabolized
- time to plateau ([2]; 1 mg/kg intravenous): 2 h
- time to plateau ([2]; 3 mg/kg intravenous): 3 h
- average rate of blood pressure decrease ([2]; 3 mg/kg intravenous): 22.3%
- time to plateau ([2]; 9 mg/kg intravenous): 3 h
- average rate of blood pressure decrease ([2]; 9 mg/kg intravenous): 35.1%
- duration of plateau ([2]; 1, 3 and 9 mg/kg intravenous): 6 h
- ED (DB20) ([2]; Canis lupus familiaris, 6 h, intravenous, from dose-response curve of FIG. 6): 2 mg/kg
- inhibitory action of central nervous system (central nervous system): less than that of RSP
- maximum rate of blood pressure decrease (blood pressure of SHR; 6.25 mg/kg oral): 31.7%
- time to reach original blood pressure level (blood pressure of SHR; 6.25 mg/kg oral): 48 h
- time to reach original blood pressure level (blood pressure of SHR; 25 mg/kg oral): 72 h
- maximum rate of blood pressure decrease (blood pressure of SHR; 25.0 mg/kg oral): 42.5%
- time from which blood pressure gradually returned (blood pressure of SHR; after plateau, 6.25, 12.5 and 25 mg/kg oral): about 12 hours
- absorption in the digestive tract ([3]; in vivo): readily absorbed
- correlation of serum level pattern with pattern of blood pressure decrease ([3]; in vivo): high corralation
- absorption from digestive tracts compared with RSP and RCN ([3]; oral): more readily absorbed
- Tmax ([3]; serum, po, 10 mg/kg, after administration, read-out: time of maximum serum level): 1 to 2 h
- side effects (rats; only at the higher doses): blepharoptosis, leukopenia, increase of urine volume, atrophy of hematopoietic organs, cortial hypertrophy of adrenal and degeneration of liver cells (in dead rats)
- food-intake (rats; rat, in vivo): No difference
- general symptoms (rats; rat, in vivo): blepharoptosis, roughening of fur and dirtiness of public region
- general symptoms, additional (rats; rat, in vivo): reduction of body weight, bloody cojunctival discharge, and a decrease of limb-skin temperature
- NOAEL (in vivo): 12.5 mg/kg
- Area under the Curve of MR Content in Serum [4]: 63.6
- body temperature (rectal) ([5]; 1 hour after): 36.6±0.2 °C
- body temperature (rectal) ([5]; 2 hours after): 36.2± 0.2 °C
- body temperature (rectal) ([5]; 3 hours after): 35.6±0.1 °C
- effect on body temperature ([5]; 3 hours after): a slight decrease in the temperature
